Activity calls are given as the source filed them. The calls are words filed in the database; no cut-off is given here.

Data on 34 compounds can be found in ChEMBL document CHEMBL4834445, “Discovery of a new class of JMJD6 inhibitors and structure-activity relationship study” (Bioorg Med Chem Lett, 2021).

The target in assay [1] is T1, Bifunctional arginine demethylase and lysyl-hydroxylase JMJD6 (Homo sapiens, UniProt Q6NYC1). The assay is described as follows: Inhibition of JMJD6 (unknown origin) by Succinate-Glo assay.
Assay [2] deals with T2, Lysine-specific demethylase 3B (Homo sapiens, UniProt Q7LBC6). The assay is described as follows: Inhibition of KDM3B (unknown origin) by Succinate-Glo assay.
T2 sequence (Q7LBC6 whole entry): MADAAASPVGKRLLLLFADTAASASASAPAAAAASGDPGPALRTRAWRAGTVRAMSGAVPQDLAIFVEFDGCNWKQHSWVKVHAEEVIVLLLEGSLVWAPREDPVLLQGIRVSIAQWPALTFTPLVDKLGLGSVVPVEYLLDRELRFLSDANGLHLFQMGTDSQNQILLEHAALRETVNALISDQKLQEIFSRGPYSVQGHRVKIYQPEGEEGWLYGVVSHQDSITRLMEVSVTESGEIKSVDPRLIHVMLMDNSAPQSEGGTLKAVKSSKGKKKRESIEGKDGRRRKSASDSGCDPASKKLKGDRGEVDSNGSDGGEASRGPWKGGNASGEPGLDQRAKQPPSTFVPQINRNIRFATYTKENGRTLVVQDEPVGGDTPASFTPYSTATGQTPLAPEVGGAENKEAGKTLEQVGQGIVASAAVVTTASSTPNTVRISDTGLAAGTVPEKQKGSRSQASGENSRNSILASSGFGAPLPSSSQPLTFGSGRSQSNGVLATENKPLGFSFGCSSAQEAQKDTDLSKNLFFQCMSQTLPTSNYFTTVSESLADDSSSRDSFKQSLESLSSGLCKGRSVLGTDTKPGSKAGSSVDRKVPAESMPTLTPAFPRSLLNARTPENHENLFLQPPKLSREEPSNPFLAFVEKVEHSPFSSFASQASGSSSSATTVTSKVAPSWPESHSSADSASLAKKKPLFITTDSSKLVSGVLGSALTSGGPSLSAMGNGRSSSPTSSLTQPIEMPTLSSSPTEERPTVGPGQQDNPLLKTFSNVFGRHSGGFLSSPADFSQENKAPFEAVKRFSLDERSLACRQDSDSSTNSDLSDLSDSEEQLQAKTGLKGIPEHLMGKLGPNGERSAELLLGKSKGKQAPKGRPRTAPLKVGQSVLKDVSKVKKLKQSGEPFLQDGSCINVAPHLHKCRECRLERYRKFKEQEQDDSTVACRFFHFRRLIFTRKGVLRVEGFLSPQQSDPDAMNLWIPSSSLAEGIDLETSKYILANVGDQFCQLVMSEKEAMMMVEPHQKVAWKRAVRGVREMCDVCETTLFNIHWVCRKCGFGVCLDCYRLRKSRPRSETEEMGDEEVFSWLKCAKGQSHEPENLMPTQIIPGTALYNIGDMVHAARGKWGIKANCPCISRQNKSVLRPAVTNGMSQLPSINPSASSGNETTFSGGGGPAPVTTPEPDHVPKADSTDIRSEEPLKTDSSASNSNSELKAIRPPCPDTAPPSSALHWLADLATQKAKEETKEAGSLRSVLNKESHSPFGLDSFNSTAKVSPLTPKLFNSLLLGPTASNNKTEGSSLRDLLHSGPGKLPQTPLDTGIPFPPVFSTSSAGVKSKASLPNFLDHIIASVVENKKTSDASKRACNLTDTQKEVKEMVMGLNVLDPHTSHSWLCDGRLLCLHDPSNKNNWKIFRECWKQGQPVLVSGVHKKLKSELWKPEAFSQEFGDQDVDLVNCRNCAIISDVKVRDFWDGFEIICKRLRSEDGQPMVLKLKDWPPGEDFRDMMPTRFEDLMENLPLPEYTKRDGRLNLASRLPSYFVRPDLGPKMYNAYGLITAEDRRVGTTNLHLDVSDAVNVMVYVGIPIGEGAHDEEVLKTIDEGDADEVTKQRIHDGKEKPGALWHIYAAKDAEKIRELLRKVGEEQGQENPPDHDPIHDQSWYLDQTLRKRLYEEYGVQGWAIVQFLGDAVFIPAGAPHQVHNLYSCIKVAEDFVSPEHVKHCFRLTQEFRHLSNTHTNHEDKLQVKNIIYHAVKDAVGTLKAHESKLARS
Assay [3] deals with T3, Lysine-specific demethylase 4D (Homo sapiens, UniProt Q6B0I6).
T3 sequence (Q6B0I6 whole entry): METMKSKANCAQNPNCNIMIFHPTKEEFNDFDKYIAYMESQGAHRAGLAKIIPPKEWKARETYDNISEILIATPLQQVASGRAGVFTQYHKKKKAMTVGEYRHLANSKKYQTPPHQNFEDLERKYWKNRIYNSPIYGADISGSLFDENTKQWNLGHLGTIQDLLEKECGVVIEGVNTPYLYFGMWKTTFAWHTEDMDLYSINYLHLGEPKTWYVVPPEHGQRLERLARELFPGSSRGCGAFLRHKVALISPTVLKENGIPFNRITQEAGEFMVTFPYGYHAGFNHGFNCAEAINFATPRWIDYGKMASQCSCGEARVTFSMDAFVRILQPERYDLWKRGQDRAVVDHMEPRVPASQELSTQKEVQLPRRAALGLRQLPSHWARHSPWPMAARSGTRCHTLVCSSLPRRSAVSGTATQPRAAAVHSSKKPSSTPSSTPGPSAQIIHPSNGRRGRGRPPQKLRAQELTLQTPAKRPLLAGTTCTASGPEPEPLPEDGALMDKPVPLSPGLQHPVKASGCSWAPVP
Put plainly: Inhibition of KDM4D (unknown origin) by Succinate-Glo assay.

For assay [4], the target named is T4, Lysine-specific demethylase 5A (Homo sapiens, UniProt P29375). The assay is described as follows: Inhibition of KDM5A (unknown origin) by AlphalLISA assay.
T4 sequence (P29375 whole entry): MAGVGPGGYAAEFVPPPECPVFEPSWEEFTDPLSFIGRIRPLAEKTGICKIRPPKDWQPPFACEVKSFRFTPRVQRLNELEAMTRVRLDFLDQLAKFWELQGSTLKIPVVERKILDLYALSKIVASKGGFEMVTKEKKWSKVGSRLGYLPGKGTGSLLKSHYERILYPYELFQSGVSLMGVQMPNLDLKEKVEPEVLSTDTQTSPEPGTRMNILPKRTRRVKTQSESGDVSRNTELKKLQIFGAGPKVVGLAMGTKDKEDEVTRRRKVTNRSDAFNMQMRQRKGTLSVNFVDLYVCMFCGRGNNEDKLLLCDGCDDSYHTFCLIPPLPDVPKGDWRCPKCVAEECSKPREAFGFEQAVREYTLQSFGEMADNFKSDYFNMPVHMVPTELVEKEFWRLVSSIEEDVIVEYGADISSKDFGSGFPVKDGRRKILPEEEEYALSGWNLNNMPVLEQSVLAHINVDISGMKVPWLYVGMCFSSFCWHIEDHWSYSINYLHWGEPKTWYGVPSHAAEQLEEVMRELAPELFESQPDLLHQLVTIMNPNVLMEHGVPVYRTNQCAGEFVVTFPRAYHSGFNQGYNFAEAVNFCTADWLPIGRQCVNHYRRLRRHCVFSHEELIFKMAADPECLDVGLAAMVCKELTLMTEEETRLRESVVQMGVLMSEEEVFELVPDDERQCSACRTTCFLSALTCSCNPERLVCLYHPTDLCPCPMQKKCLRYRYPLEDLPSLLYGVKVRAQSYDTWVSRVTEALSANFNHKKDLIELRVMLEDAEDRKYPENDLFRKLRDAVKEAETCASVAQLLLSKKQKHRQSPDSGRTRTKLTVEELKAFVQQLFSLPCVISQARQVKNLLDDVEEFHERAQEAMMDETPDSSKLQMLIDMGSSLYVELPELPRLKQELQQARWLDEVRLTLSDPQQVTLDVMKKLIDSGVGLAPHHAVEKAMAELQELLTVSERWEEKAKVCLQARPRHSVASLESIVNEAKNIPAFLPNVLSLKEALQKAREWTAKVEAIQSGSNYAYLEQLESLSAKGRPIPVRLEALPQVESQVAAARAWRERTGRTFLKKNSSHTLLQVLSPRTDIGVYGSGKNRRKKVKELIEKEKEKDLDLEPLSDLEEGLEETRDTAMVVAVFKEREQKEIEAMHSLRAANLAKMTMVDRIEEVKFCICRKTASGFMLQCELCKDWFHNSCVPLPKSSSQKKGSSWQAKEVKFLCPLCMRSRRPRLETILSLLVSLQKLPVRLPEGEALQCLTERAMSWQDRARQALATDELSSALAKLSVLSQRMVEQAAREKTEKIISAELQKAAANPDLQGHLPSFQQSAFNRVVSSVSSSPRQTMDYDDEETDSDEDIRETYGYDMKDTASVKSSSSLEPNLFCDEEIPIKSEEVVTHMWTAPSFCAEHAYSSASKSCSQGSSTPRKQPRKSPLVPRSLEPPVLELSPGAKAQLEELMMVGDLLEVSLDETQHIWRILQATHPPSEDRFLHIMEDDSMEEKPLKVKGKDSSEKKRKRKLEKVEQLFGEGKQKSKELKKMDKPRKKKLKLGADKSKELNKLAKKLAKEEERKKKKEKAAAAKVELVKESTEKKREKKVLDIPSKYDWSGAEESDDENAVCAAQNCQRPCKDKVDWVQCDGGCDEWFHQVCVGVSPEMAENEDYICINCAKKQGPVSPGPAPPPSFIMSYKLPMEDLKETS
Assay [5] has as its target T5, RNA demethylase ALKBH5 (Homo sapiens, UniProt Q6P6C2). The assay is described as follows: Inhibition of ALKBH5 (unknown origin) by Succinate-Glo assay.
Target sequence in this assay (Q6P6C2 whole entry): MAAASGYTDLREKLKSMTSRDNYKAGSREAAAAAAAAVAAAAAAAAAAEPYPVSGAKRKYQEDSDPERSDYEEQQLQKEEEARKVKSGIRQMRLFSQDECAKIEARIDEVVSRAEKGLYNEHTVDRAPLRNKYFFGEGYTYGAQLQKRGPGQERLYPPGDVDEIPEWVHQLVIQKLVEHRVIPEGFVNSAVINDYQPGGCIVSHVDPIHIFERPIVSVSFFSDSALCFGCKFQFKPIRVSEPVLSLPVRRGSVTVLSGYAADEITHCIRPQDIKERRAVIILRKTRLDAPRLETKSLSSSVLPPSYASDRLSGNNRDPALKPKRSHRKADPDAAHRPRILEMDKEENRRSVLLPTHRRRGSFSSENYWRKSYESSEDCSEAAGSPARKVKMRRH
Assay [6] deals with T6, Bifunctional peptidase and (3S)-lysyl hydroxylase JMJD7 (Homo sapiens, UniProt P0C870). Put plainly: Inhibition of JMJD7 (unknown origin) by Succinate-Glo assay.
T6 sequence (P0C870 whole entry): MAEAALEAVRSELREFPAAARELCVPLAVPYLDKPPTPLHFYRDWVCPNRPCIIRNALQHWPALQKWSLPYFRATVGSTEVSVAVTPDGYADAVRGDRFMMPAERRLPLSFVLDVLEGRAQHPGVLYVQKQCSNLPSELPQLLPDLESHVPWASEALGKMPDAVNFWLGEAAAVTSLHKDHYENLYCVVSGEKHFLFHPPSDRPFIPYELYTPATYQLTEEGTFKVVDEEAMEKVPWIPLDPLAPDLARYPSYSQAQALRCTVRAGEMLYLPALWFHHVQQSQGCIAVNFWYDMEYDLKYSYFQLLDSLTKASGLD
Assay [7] deals with T1, Bifunctional arginine demethylase and lysyl-hydroxylase JMJD6. The assay is described as follows: Binding affinity to JMJD6 in human HeLa cells assessed as inhibition of temperature-dependent protein degradation by CETSA. The class given is cell-based.
For assay [8] the target is unchanged. Put plainly: Binding affinity to JMJD6 (unknown origin) assessed as thermal stability of the protein by measuring change in melting temperature by differential scanning fluorimetry.
The target of assay [9] is T2, Lysine-specific demethylase 3B. The assay is described as follows: Binding affinity to KDM3B (unknown origin) by differential scanning fluorimetry. On the technique in general: DSF heats the sample and reads unfolding from a dye or from intrinsic fluorescence.
Assay [10] has as its target T7, Lysine-specific demethylase 4D (Homo sapiens) (UniProt Q6B0I6).
T7 sequence (whole entry): T3 sequence (Q6B0I6 whole entry)
Put plainly: Binding affinity to KDM4D (unknown origin) by differential scanning fluorimetry.

Assay [11] concerns the target T4, Lysine-specific demethylase 5A. Put plainly: Binding affinity to KDM5A (unknown origin) by differential scanning fluorimetry.
The target of assay [12] is T5, RNA demethylase ALKBH5. Put plainly: Binding affinity to ALKBH5 (unknown origin) by differential scanning fluorimetry.
Target sequence in this assay (Q6P6C2 2-394 limits assumed): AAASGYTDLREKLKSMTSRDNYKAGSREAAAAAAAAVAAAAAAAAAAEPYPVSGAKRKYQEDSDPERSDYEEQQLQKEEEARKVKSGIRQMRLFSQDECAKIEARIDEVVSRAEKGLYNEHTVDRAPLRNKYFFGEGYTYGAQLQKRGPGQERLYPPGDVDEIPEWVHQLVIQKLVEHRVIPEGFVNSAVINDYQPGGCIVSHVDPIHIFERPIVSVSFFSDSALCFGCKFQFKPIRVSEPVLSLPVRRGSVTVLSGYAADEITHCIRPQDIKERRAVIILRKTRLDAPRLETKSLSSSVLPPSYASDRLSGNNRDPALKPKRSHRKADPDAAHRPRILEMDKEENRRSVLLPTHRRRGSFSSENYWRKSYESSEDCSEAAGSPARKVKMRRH
For assay [13], the target named is T6, Bifunctional peptidase and (3S)-lysyl hydroxylase JMJD7. The assay is described as follows: Binding affinity to JMJD7 (unknown origin) by differential scanning fluorimetry.
Assay [14] deals with T1, Bifunctional arginine demethylase and lysyl-hydroxylase JMJD6. The assay is described as follows: Inhibition of JMJD6 (unknown origin) at 100 uM by Succinate-Glo assay.
The target is the same in assay [15]. The assay is described as follows: Inhibition of JMJD6 (unknown origin).

In general, IC50 refers to the concentration needed to halve the response being measured. A higher IC50 goes with weaker potency in that assay. In the case of `Cn1ccc(-c2cc(C(=O)OCC3CCC3)ccn2)n1`, the IC50 in assay [1] was 2.53 µM.

`CCOC(=O)c1ccnc(-c2nn(C)cc2-c2cc(OC)cc(OC)c2)c1` came in with an IC50 in assay [1] of over 100 µM.

For the compound `Cn1ccc(-c2cc(C(=O)OCC3CC3)ccn2)n1`, in assay [1], the IC50 was 3.8 µM. In other words, the single-digit micromolar range.

In the case of `CCOC(=O)c1ccnc(-c2ccn(C(C)C)n2)c1`, in assay [1], the concentration for half-maximal inhibition (IC50) was over 100 µM.

Turning to `CCOC(=O)c1ccnc(-c2ccnn2C)c1`, the 50% inhibitory concentration (IC50) in assay [1] is over 100 µM.

Compound `CCOC(=O)c1ccnc(-c2nn(C)cc2-c2ccc3occc3c2)c1` showed a concentration for half-maximal inhibition (IC50) in [1] of over 100 µM.

With `CCNC(=O)c1ccnc(-c2ccn(C)n2)c1`, the half-inhibitory concentration (IC50) in assay [1] was over 100 µM.

As for `CCOC(=O)c1ccnc(-c2nn(C)cc2-c2cc3ccccc3c3ccccc23)c1`, in assay [1], the IC50 was over 100 µM.

As a reminder, the ΔTm is the change in melting temperature against a reference sample. Turning to `Cn1ccc(-c2cc(C(=O)OCC(F)(F)F)ccn2)n1`, the IC50 in assay [1] was 0.681 µM; in [2], over 100 µM; in assay [3], over 100 µM; in assay [4], over 100 µM; in assay [5] it was over 100 µM; in [6] it was over 100 µM. Besides, in assay [7], the result was Active. In addition, the ΔTm in assay [8] was 1.94 °C. For the same compound, the outcome in assay [9], in assay [10], in assay [11], in assay [12] and in assay [13] was inactive.

In [1], `CCOC(=O)c1cccnc1-c1ccn(C)n1` showed an IC50 of over 100 µM.

In general, inhibition refers to how much of the control response was suppressed. In the case of `CCOC(=O)c1ccnc(-c2cc[nH]n2)c1`, the inhibition in [14] turned out to be 76%. Besides, in assay [1], the IC50 worked out at 19.9 µM and the inhibition result is “Dose-Dependent Effect”.

`CCCOC(=O)c1ccnc(-c2ccn(C)n2)c1` returned a half-maximal inhibitory concentration (IC50) in assay [1] of 1.34 µM.

Compound `CC(C)OC(=O)c1ccnc(-c2ccn(C)n2)c1` yielded a half-maximal inhibitory concentration (IC50) in [1] of 1.94 µM.

In assay [1], `Cn1ccc(-c2cc(-c3cnn[nH]3)ccn2)n1` registered an IC50 of 12.9 µM.

In turn, `COC(=O)c1ccnc(-c2ccn(C)n2)c1` had a 50% inhibitory concentration (IC50) in [1] of 1.86 µM.

As to `CCOC(=O)c1ccnc(-c2nn(C)cc2-c2cccc(N3CCOCC3)c2)c1`, the half-maximal inhibitory concentration (IC50) in assay [1] stood at 20.4 µM.

As to `Cc1cc(O)nc(NN=Cc2ccccc2O)n1`, the 50% inhibitory concentration (IC50) in assay [15] stood at 0.78 µM.

As to `CCOC(=O)c1ccnc(-c2nn(C)cc2-c2ccccc2)c1`, the IC50 in [1] is 15.2 µM.

In turn, `CCOC(=O)c1ccnc(-c2ccn(CC)n2)c1` yielded a half-maximal inhibitory concentration (IC50) in [1] of 2.43 µM.

In [1], `CCOC(=O)c1cc(C)nc(-c2ccn(C)n2)c1` came in with a 50% inhibitory concentration (IC50) of over 100 µM.

On to `CCOC(=O)c1ccnc(-c2nn(C)cc2-c2ccc(OC)nc2)c1`, for which the IC50 in assay [1] was determined as 24.9 µM.

As to `Cn1ccc(-c2cc(C(=O)OC3CCCC3)ccn2)n1`, the concentration for half-maximal inhibition (IC50) in assay [1] worked out at 43.5 µM.

`CCOC(=O)c1cccc(-c2ccn(C)n2)c1` gave a half-maximal inhibitory concentration (IC50) in assay [1] of over 100 µM.

For the compound `Cn1ccc(-c2cc(C(=O)OCc3ccccc3)ccn2)n1`, in [1], half-maximal inhibition (IC50) required 5.69 µM.

For `CCOC(=O)c1ccnc(-c2ccn(C)n2)c1`, in assay [1], the midpoint of inhibition, the IC50, lay at 0.914 µM.

`CCOC(=O)c1ccnc(-c2nn(C)cc2-c2cccc(C)c2)c1` yielded an IC50 in assay [1] of 22.9 µM.

On to `Cn1ccc(-c2cc(C(N)=O)ccn2)n1`, for which the 50% inhibitory concentration (IC50) in [1] was over 100 µM.

As to `CCOC(=O)c1cc(-c2ccn(C)n2)ncc1C(F)(F)F`, the concentration for half-maximal inhibition (IC50) in [1] is over 100 µM.

With `Cn1ccc(-c2cc(C(=O)OCC(F)F)ccn2)n1`, inhibition in [1] was half-maximal at 1.12 µM (IC50). This counts as single-digit micromolar.

Consider `CCOC(=O)c1ccc(-c2ccn(C)n2)nc1`, for which the half-maximal inhibitory concentration (IC50) in assay [1] is over 100 µM.

In turn, `Cn1ccc(-c2cc(C(=O)O)ccn2)n1` had an IC50 in assay [1] of 1.71 µM.

On to `CC(C)COC(=O)c1ccnc(-c2ccn(C)n2)c1`, for which, in assay [1], the midpoint of inhibition, the IC50, lay at 11.8 µM.

The compound `Cn1ccc(-c2cc(C(=O)OCCF)ccn2)n1` displayed an IC50 in assay [1] of 1.45 µM.

Turning to `CCOC(=O)c1cc(-c2ccn(C)n2)ncc1F`, the concentration for half-maximal inhibition (IC50) in [1] was 23.1 µM.
